In assay [1] the target is HPK1 (Homo sapiens, UniProt Q92918). Briefly: Inhibitory effect against enzyme activity of HPK1 (lantha Screen, PKC substrate). It counts as biochemical. To be noted: class symbols defined as IC50 ranges, read-out: Inhibition rate (%). The method, then: Example 130: Assay of Inhibitory Effect of Compound Against Enzyme Activity of HPK1
The inhibitory effect of the compound against the enzyme activity of HPK1 was determined by using a lantha Screen method with PKC as a substrate. The process comprises the following specific steps: the HPK1 protein was incubated with the serially-diluted compound at 28° C. for 10 min followed by addition of fluoroescein-labeled PKC substrate and ATP to react for 90 min. After termination of the reaction, a Terbium-labeled antibody against phosphorylated PKC was added and incubated for 60 min. The energy transfer of Teribium and fluoroscein was monitored by detecting luminescence at 520 nm and 450 nm to quantify PKC as the level of phosphorylation of […]. Inhibition % and IC50 of the compound were calculated compared to the control group.

The target in assay [2] is T1, hERG potassium channel (Homo sapiens, UniProt Q12809).
T1 construct: expressed in transfected cells; host or cells: HEK293
Description: Inhibitory effect against hERG channel activity (manual patch clamp, HEK293 cells stably expressing hERG). It counts as cell-based. To be noted: HEK293 cell line stably expressing hERG. As to the method:
Example 131: Assay of Inhibitory Effect of Compound Against hERG Channel Activity
The HEK293 cell line stably expressed by the hERG potassium channel was adopted for detection using manual patch clamp. Firstly, the HEK293 cell line stably expressed by the hERG potassium channel was separated and laid on a cover glass before the patch clamp detection test, and the test detection was carried out after culture for 18 h. Then a capillary glass tube was drawn into a recording electrode, and the recording electrode was contacted onto the cells under an inverted microscope to form a whole-cell recording mode. After necessary compensation and recording of the membrane capacitance and series resistance, current recording was performed according to the set current stimulation protocol. After the hERG current stabilized, administration was started and the current detected in compound-free extracellular fluid for each cell served as its own control group, and multiple cells were repeatedly tested independently. The current acted for each drug concentration and the current of the blank control were standardized, then the inhibition rate corresponding to each drug concentration was calculated, and finally the half-inhibition concentration IC50 value of each compound was calculated.

SMILES strings stand for the structures.

HPK1, sequence (Q92918 whole entry): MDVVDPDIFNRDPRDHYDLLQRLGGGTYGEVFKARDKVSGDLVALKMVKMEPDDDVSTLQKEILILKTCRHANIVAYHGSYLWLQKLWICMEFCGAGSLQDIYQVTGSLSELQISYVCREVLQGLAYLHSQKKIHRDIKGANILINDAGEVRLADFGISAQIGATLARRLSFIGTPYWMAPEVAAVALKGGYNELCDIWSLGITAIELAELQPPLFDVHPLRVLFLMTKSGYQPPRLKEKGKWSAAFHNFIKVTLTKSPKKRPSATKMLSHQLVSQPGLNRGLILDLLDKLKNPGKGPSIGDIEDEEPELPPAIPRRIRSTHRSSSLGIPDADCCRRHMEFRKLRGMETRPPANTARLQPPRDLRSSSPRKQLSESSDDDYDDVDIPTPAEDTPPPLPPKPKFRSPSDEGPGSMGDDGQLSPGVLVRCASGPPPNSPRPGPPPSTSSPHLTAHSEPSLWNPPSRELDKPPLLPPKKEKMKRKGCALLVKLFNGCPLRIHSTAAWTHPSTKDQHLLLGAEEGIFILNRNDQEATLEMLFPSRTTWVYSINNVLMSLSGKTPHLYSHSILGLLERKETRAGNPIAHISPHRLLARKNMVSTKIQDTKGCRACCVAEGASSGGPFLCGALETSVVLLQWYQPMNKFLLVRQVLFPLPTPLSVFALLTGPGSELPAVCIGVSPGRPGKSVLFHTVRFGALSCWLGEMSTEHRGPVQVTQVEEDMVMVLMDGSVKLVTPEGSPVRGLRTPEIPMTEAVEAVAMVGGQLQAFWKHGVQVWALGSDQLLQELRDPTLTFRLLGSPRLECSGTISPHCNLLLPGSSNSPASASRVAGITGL
T1 sequence (Q12809 whole entry): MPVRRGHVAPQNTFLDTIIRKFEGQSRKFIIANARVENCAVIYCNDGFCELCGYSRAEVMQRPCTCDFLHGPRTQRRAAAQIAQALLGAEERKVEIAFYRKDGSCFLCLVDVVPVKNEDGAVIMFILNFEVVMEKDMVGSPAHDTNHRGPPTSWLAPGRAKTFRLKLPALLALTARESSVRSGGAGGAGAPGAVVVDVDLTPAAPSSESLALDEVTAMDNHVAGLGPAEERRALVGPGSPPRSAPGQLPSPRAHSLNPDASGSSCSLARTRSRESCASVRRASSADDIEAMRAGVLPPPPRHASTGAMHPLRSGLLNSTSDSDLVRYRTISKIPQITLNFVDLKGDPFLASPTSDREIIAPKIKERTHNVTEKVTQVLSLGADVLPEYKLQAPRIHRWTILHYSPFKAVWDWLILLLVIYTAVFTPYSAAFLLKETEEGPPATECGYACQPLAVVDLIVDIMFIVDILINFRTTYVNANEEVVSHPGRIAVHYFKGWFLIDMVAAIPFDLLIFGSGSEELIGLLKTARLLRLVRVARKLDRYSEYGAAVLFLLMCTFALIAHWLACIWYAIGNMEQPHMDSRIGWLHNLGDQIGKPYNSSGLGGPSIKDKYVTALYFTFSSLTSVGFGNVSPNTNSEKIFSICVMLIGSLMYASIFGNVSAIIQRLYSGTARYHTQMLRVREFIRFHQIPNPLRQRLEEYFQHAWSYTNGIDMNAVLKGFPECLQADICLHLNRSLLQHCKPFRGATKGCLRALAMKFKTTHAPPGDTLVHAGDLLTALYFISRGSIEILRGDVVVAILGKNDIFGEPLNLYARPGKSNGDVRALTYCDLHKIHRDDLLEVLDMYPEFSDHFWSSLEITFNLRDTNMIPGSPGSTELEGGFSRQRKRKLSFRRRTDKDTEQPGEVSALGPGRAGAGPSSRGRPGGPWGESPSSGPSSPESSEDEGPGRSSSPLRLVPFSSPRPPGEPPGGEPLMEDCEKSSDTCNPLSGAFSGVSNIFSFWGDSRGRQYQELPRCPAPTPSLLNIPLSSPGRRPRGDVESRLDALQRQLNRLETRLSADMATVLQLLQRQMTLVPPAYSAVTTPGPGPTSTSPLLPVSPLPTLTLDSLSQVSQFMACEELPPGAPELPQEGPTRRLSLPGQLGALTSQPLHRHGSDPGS

As to `COc1cccc(F)c1-c1cc2c(-c3ccc4c(c3)OCC3CN(C)CCN43)n[nH]c2cc1C#N` (stereo not shown) [Compound 6], the IC50 in assay [1] was no more than 0.01 µM; in assay [2], 17.8 µM.

Consider `COc1ccc(F)c(F)c1-c1cc2c(-c3ccc4c(c3)OCC3CN(C)CCN43)n[nH]c2cc1C#N` (stereo not shown) [Compound 16], for which the IC50 in assay [1] was no more than 0.01 µM; in assay [2], 23.6 µM.

Take `CNCc1cc(F)c(-c2cc3c(-c4ccc5c(c4)OCC4CN(C)CCN54)n[nH]c3cc2C#N)c(F)c1` (stereo not shown) [Compound 18]: the IC50 was no more than 0.01 µM in assay [1] and 11.8 µM in assay [2].

As to `CN1CCN2c3ccc(-c4n[nH]c5cc(C#N)c(-c6c(F)cc(C(=O)N7CC(N(C)C)C7)cc6F)cc45)cc3OCC2C1` (stereo not shown) [Compound 35], the IC50 in assay [1] was no more than 0.01 µM; in assay [2] it was 31.8 µM.

For `Cc1ccncc1-c1cc2c(-c3ccc4c(c3)OCC3CN(C)CCN43)n[nH]c2cc1C#N` (stereo not shown) [Compound 43], the IC50 in assay [1] is no more than 0.01 µM; in assay [2] it was 17.4 µM.

Turning to `CN1CCN2c3ccc(-c4n[nH]c5cnc(-c6cccc(F)c6F)cc45)cc3OCC2C1` (stereo not shown) [Compound 67], the figures for the IC50 in assay [1] and in assay [2] were 0.01 to 0.1 µM and 51.2 µM, respectively.

Turning to `COc1ccc(F)c(F)c1-c1cc2c(-c3ccc4c(c3)OCC3CN(C)CCN43)n[nH]c2cn1` (stereo not shown) [Compound 73], the IC50 in assay [1] is 0.01 to 0.1 µM; in assay [2], 41.2 µM.

Take `CN1CCN2c3ccc(-c4cnc5[nH]cc(-c6ccc(C(=O)N7CC(N(C)C)C7)cc6)c5n4)cc3OCC2C1` (stereo not shown) [Compound 112]: the results for the IC50 in assay [1] and in assay [2] were no more than 0.01 µM and 35.6 µM, respectively.

The values are drawn from US12686689B2, “HPK1 inhibitor, preparation method therefor and use thereof” (WIGEN BIOMEDICINE TECHNOLOGY (SHANGHAI) CO., LTD., priority 2020, dated 2026).
